“And” between values parts separate entries of the source, which are not always exact repeats. Equal values may be shown once.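 Tested at 5 concentrations; 48 h exposure; 96-well plates; endpoints linearly interpolated, else capped at highest concentration. GI50: concentration for 50% inhibition of growth. TGI: total growth inhibition.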
Legend:
Experiment in all cases: NCI-60 cell line screen, 48 h
[1] = system: EKVX NSCLC
[2] = system: A498 renal
[3] = system: IGROV1 ovarian
[4] = system: MCF7 breast
[5] = system: HL-60(TB) leukemia
[6] = system: PC-3 prostate
[7] = system: KM12 colon
[8] = system: SK-MEL-5 melanoma
[9] = system: HCT-15 colon
[10] = system: SR leukemia

Compound	GI50 [1]	TGI [1]	GI50 [2]	TGI [2]	GI50 [3]	TGI [3]	GI50 [4]	TGI [4]	GI50 [5]	TGI [5]	GI50 [6]	TGI [6]	GI50 [7]	TGI [7]	GI50 [8]	TGI [8]	GI50 [9]	TGI [9]	TGI [10]	GI50 [10]
COc1cc2c3c(n(CCCN4CCCC(O)C4)c(=O)c2cc1OC)-c1cc2c(cc1C3=O)OCO2 (configuration not stated)	1.26 µM	2.54 µM	7.73 µM	25.1 µM	0.836 µM	8.87 µM	0.0107 µM	1.31 µM	0.597 µM	1.32 µM	0.0879 µM	1.15 µM	0.333 µM	1.49 µM	0.318 µM	20.6 µM	0.709 µM	1.7 µM		
CC(CN)[C@@H]1CC[C@]2(CO)CC[C@]3(C)[C@H](CC[C@@H]4[C@@]5(C)CCC(N)C(C)(C)[C@@H]5CC[C@]43C)[C@@H]12 (some centres not stated)	1.73 µM	3.51 µM	1.84 µM	3.31 µM	1.86 µM	3.78 µM	1.57 µM	3.52 µM			1.74 µM	3.31 µM	1.74 µM	3.34 µM	1.67 µM	3.08 µM	1.69 µM	3.49 µM		
COc1cnc2c(c1)C(=O)c1c-2n(CCCNC(C)C)c(=O)c2cc([N+](=O)[O-])ccc12	0.134 µM	0.706 µM			0.115 µM	1.43 µM	0.0115 µM	1.07 µM	0.0336 µM	0.111 µM	0.211 µM	3.07 µM	0.221 µM	0.981 µM	0.0461 µM	0.177 µM	0.124 µM	0.402 µM	0.226 µM	
c1ccc2c3c(ccc2c1)-c1c(ccc2c(NCCCCN4CCCCC4)cccc12)C3	10.7 µM	28 µM			2.09 µM	8.03 µM	10.8 µM	30.3 µM	2.48 µM	14.6 µM	1.61 µM	3.23 µM	1.51 µM	3 µM	11 µM	26.7 µM	1.86 µM	3.79 µM	5.4 µM	1.37 µM
CCOC(=O)NC1CC2CCC1(OC)C=C2C (configuration not stated)		> 100 µM		> 100 µM		> 100 µM				> 100 µM				> 100 µM		> 100 µM		> 100 µM	> 100 µM	
CCCCCCCCCCCCC(CCCCCCCCCCCC)OP(=O)(O)O		> 100 µM		52.8 µM		> 100 µM				> 100 µM				> 100 µM		> 100 µM		> 100 µM	> 100 µM	
C=C1C(=O)O[C@H]2[C@H]1CC/C(COC(=O)NCc1cc(OC)cc(OC)c1)=C\CC[C@@]1(C)O[C@@H]21	2.06 µM	6.6 µM	2.11 µM	5.8 µM	2.12 µM	7.66 µM			1.69 µM	5.03 µM	2.72 µM	8.67 µM	2.8 µM	11 µM	3.48 µM	12.2 µM	0.77 µM	2.25 µM	2.91 µM	0.32 µM
CCOC(=O)N1C=CC(=C2C(=C3C=CN(C(=O)OCC)C=C3)C(=C3C=CN(C(=O)OCC)C=C3)C2=C2C=CN(C(=O)OCC)C=C2)C=C1		> 100 µM				85.3 µM		> 100 µM		> 100 µM		91.7 µM		> 100 µM		> 100 µM		44.1 µM	26.3 µM	
FC(F)(F)c1nc(-c2ccccc2)oc1Sc1oc(-c2ccccc2)nc1C(F)(F)F		> 100 µM		> 100 µM		> 100 µM				> 100 µM				> 100 µM		> 100 µM		> 100 µM	> 100 µM	
CCCCCCNCCCNc1c2ccccc2nc2cccc([N+](=O)[O-])c12	0.185 µM	0.12 µM and 0.812 µM	0.0931 µM	0.321 µM and 0.327 µM	0.0252 µM	0.0713 µM and 0.186 µM		0.112 µM and 0.103 µM	0.0216 µM			0.0878 µM and 0.393 µM		0.0352 µM and 0.0335 µM		0.0258 µM and 0.0243 µM		> 100 µM		
Cn1sc2ccccc2c1=S		27.6 µM		99 µM		31.7 µM		7.36 µM		27.2 µM				25.3 µM		25.3 µM		17.3 µM	38.7 µM	
Cc1nn(C)c2cc(N(C)c3ccnc(Nc4cccc(S(N)(=O)=O)c4)n3)ccc12	6.92 µM	> 25 µM	5.27 µM	17.5 µM	5.98 µM	> 18.9 µM	7.11 µM	> 25 µM	5.76 µM	21.5 µM	7.17 µM	> 25 µM	7.38 µM	> 25 µM	3.62 µM	8.4 µM	9.02 µM	> 25 µM		
COc1cc(N2CCC(N3CCN(C)CC3)CC2)ccc1Nc1ncc(Cl)c(Nc2ccccc2S(=O)(=O)C(C)C)n1	0.489 µM	11.5 µM	0.263 µM	1.73 µM	1.39 µM	9.2 µM	0.114 µM	6.75 µM	0.327 µM	1.4 µM	2.16 µM	11.7 µM	0.352 µM	3.48 µM	1.37 µM	2.67 µM	1.94 µM	11.5 µM		
CSC1(CC(=O)N2CCCCC2)C(=O)Nc2ccccc21 (configuration not stated)		> 100 µM		> 100 µM		> 100 µM		> 100 µM				> 100 µM		> 100 µM		> 100 µM		> 100 µM		
Cc1ccc(NC(=O)CC2C(=O)Nc3ccccc3S2=O)c(C)c1 (configuration not stated)		> 100 µM		61.3 µM		42.1 µM				11 µM				> 100 µM		38.1 µM		25.4 µM	7.54 µM	
O=C(NCCCCCCNC(=O)OCc1ccc2c(Cl)cc(Cl)c(O)c2n1)OCc1ccc2c(Cl)cc(Cl)c(O)c2n1	1.51 µM	3.08 µM	1.25 µM	2.55 µM	0.57 µM	1.78 µM			0.771 µM	4.29 µM	0.815 µM	2.42 µM	1.34 µM	2.95 µM	1.54 µM	2.88 µM	0.317 µM	1.02 µM		0.357 µM
O=NN(CCCl)C(=O)N[C@H]1CCCC[C@@H]1Cl		> 100 µM		> 100 µM		> 100 µM				42.7 µM				> 100 µM		> 100 µM		> 100 µM	17 µM	
CC(C)c1ccc2nc3ccc(C(=O)NCCN4CCN(c5ccccc5)CC4)cn3c(=O)c2c1		> 100 µM		> 100 µM		> 100 µM		> 100 µM						> 100 µM		7.81 µM		> 100 µM		
CC1=CC(=O)c2ccc(C)cc2C1=O		23.9 µM		34.4 µM		30.8 µM		11.3 µM		5.4 µM		44.1 µM		19.8 µM		15 µM		27.3 µM		
CC1=Nc2ccccc2C12C(c1ccccc1)C(c1ccccc1)C(=O)N1c3ccccc3CC12 (configuration not stated)		> 100 µM		> 100 µM		> 100 µM				> 100 µM				> 100 µM		> 100 µM		> 100 µM	> 100 µM	
C[CH2][Sn]([CH2]C)([O]C(=O)c1ccc(F)cc1)[O][Sn]([CH2]C)([CH2]C)[O]C(=O)c1ccc(F)cc1	> 100 µM	> 100 µM	16.4 µM	30 µM	> 100 µM	> 100 µM			> 100 µM	> 100 µM			> 100 µM	> 100 µM	> 100 µM	> 100 µM	> 100 µM	> 100 µM	> 100 µM	41.1 µM
N#CSc1ccc(S(N)(=O)=O)cc1		> 100 µM		> 100 µM		> 100 µM		> 100 µM		37.1 µM		> 100 µM		> 100 µM		> 100 µM		> 100 µM		
COc1ccc(C(c2cc3c(cc2O)OCO3)N2CCOCC2)cc1OC (configuration not stated)		36.7 µM				29.6 µM		> 100 µM		79.8 µM		25.7 µM		24.9 µM		26.3 µM		15.8 µM		
C[C@@H]1OCC2(CCN(c3cnc(Sc4ccnc(N)c4Cl)c(N)n3)CC2)[C@@H]1N	0.573 µM	> 100 µM	0.128 µM	4.6 µM	0.801 µM	> 100 µM	> 100 µM	> 100 µM	> 100 µM	> 100 µM	> 100 µM	> 100 µM	5.46 µM	> 100 µM	> 93.3 µM	> 100 µM	> 100 µM	> 100 µM		
COc1cc(/C=C2\C[C@H]3[C@@H]4CC=C5C[C@@H](OC(C)=O)CC[C@]5(C)[C@H]4CC[C@]3(C)[C@H]2OC(C)=O)ccc1OCCN1CCCCC1	> 50 µM	> 50 µM			40 µM	> 50 µM	10.6 µM	25 µM	40.7 µM	> 50 µM	24.7 µM	> 50 µM	14.4 µM	46.1 µM	8.16 µM	15.5 µM	7.59 µM	15.8 µM		
CCCN1C(=O)CNC(=O)c2[nH]cnc21		> 100 µM		> 100 µM		> 100 µM				> 100 µM				> 100 µM		> 100 µM		> 100 µM	> 100 µM	

Reference: PubChem BioAssay (NCI)
